From US10640545B2 (THE GOVERNORS OF THE UNIVERSITY OF ALBERTA, priority 2017, dated 2020)
Entries after “also recorded” stand apart in the source; their conditions may differ. *1 amine or outer side, *2 acyl side, *3 side chain or, on linkers, in order; H or OH if unused. Where a SMILES comes first, the peptide text is derived from it. [ ]: non-standard residue; d: D form. The star is where a group is joined. Phe(4-Br) = N[C@@H](Cc1ccc(Br)cc1)C(=O)O; X1 = N=C(N)NCCCN(N[*:1])C(=O)[*:2]; Palmitoyl = CCCCCCCCCCCCCCCC(=O)*; αMeR = C[C@](N)(CCCNC(=N)N)C(=O)O; NMeL = CN[C@@H](CC(C)C)C(=O)O; pGlu = O=C1CC[C@@H](C(=O)O)N1; αMeL = CC(C)C[C@](C)(N)C(=O)O; Nle = CCCC[C@H](N)C(=O)O; Aib = CC(C)(N)C(=O)O

Experiments:
[1] = target: T1, wild-type rat apelin receptor (Rattus norvegicus, UniProt Q9JHG3); experiment: Radioligand binding, displacement of [125I]-pyr-1-apelin-13 on CHO cell membranes; details: for Ki: displacement of [125I]-pyr-1-apelin-13 (0.2 nM), CHO membranes, rat apelin receptor-EGFP, means ± SE, read-out: Affinity Ki; for weaker affinity compared to 1, by a factor: ratio of Ki to native 1
T1 construct: expressed in transfected cells
T1 sequence (Q9JHG3 1-377): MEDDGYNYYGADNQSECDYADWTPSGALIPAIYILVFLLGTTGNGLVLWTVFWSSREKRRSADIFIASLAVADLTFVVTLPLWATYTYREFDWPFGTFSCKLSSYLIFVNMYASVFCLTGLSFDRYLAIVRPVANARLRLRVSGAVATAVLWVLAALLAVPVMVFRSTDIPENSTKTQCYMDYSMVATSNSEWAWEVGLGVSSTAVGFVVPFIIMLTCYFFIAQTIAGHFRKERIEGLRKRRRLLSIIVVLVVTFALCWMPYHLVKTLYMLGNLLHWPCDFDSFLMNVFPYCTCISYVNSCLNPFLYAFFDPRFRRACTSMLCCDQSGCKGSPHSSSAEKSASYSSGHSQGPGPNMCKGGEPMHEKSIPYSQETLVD
Experimental: This experiment evaluated the ability of peptides of the present embodiments to bind to the wild-type rat apelin receptor, in order to examine the impact of synthetic modification within the critical RPRL motif of the apelin peptides.
Membrane preparations from CHO cells stably expressing the wild-type rat apelin receptor-EGFP were prepared as previously described (Gerbier et al., New Structural Insights Into The Apelin Receptor: Identification Of Key Residues For Apelin binding; FASEB J. 2015, 29, 314-322; Iturrioz et. al., Development Of Original Metabolically-Stable Apelin-17 Peptides With Diuretic And Cardiovascular Effects; FASEB J. 2017, 31, 687-700.) Crude membrane preparations (1 μg total mass of membranes/assay) were incubated for 3 h at 20° C. with 0.2 nM [^125I]-pyr-1-apelin-13 (monoiodinated on Lys^8 with Bolton-Hunter reagent, Perkin Elmer, Wellesley, Mass., USA) in binding buffer (50 mM HEPES, 5 mM MgCl2 1149 pH 7.5, BSA 1%) alone or in presence of the different compounds at various concentrations. The reaction was stopped by adding 4 mL of cold binding buffer, filtered on Whatman GF/C filters and washed with 5 mL of cold binding buffer. Radioactivity was then counted using a Wizard 1470 Wallac gamma counter (Perkin Elmer, Turku, Finland). Binding experiment data were analyzed with Graph Pad Prism.

in vitro = details: human, plasma
anesthetized mice = experiment: Blood pressure assay in anesthetized mice; assay type: in vivo; details: 1.4 μM/kg body weight injected; for blood pressure lowering (hypotensive) effect: SBP, DBP, MABP
Experimental: Synthetic peptides 8-19 were tested for blood pressure lowering abilities in anesthetized mice. Apelin peptides were injected through […], monitoring blood pressure (BP) and heart rate (HR) over 60 minutes.
Mice were anaesthetized with 1.5% isoflurane/oxygen, and body temperature was monitored and maintained at 36° C. by a heating pad. The aorta was cannulated via the right carotid artery using a PV loop catheter (Model 1.2F from Scisense, Transonic) in order to continuously record arterial blood pressure and heart rate (LabScribe 2.0, Scisense). […] Results are reported as systolic blood pressure (SBP), diastolic blood pressure (DBP), mean arterial blood pressure (MABP) and heart rate (HR).
Apelin peptides 11, 56-59 as well as the KLKB1-cleavage fragments 54 and 55 were tested for blood pressure lowering abilities in anesthetized mice.
Mice were anesthetized with 1.5% isoflurane/oxygen, and body temperature was monitored and maintained at 36° C. by a heating pad. The aorta was cannulated via the right carotid artery using a PV loop catheter (model 1.2F from Scisense, Transonic) in order to continuously record arterial blood pressure and heart rate (LabScribe 2.0, Scisense). Compounds 11, and 54-59 or 55-59 (1.4 μM/kg body weight) or the same volume of saline was injected via the right jugular vein. Results are reported as systolic blood pressure (SBP), diastolic blood pressure (DBP), mean arterial blood pressure (MABP), and heart rate (HR) shown in FIGS. 15A-D.
Apelin peptides were delivered systemically via the right internal jugular vein while blood pressure (BP) and heart rate (HR) were continuously monitored in the aorta cannulated via the right carotid artery. All N-terminally extended apelin peptides, except 58, show pronounced and time-stable blood pressure lowering effects (FIGS. 15a-d). […] This correlates with the results obtained from the Ca^2+ mobilization assay.

SMILES | Ki [1] | weaker affinity compared to 1, by a factor [1] | remaining at 1 h, 80 µM (in vitro) | blood pressure lowering (hypotensive) effect (anesthetized mice) | remaining at 0.5 h, 80 µM (in vitro) | effect on heart rate (HR) (anesthetized mice)
CCCC[C@H](NC(=O)[C@@H]1CCCN1C(=O)CNC(=O)[C@H](CCCCN)NC(=O)[C@H](Cc1c[nH]cn1)NC(=O)[C@H](CO)NC(=O)[C@H](CC(C)C)NC(=O)[C@](C)(CCCNC(=N)N)NC(=O)[C@@H]1CCCN1C(=O)[C@H](CCCNC(=N)N)NC(=O)[C@@H]1CCC(=O)N1)C(=O)NC(C)(C)C(=O)N[C@@H](Cc1ccc(Br)cc1)C(=O)O [Peptide 12, pGlu-Arg-Pro-αMeArg-Leu-Ser-His-Lys-Gly-Pro-Nle-Aib-paraBrPhe] ([pGlu]RP[αMeR]LSHKGP[Nle][Aib][Phe(4-Br)]-OH; C-terminus assumed) | 0.56 ± 0.033 nM | 2 | 62 ± 6% |  |  | 
CCCC[C@H](NC(=O)[C@@H]1CCCN1C(=O)CNC(=O)[C@H](CCCCN)NC(=O)[C@H](Cc1c[nH]cn1)NC(=O)[C@H](CO)NC(=O)[C@H](CC(C)C)NC(=O)[C@H](CCCNC(=N)N)NC(=O)[C@@H]1CCCN1C(=O)[C@H](CCCNC(=N)N)NC(=O)[C@H](CCC(N)=O)NC(=O)[C@@H](N)CCCNC(=N)N)C(=O)NC(C)(C)C(=O)N[C@@H](Cc1ccc(Br)cc1)C(=O)O [Peptide 54] (H-RQRPRLSHKGP[Nle][Aib][Phe(4-Br)]-OH; C-terminus assumed) |  |  |  | inactive or nearly so |  | 
CCCC[C@H](NC(=O)[C@@H]1CCCN1C(=O)CNC(=O)[C@H](CCCCN)NC(=O)[C@H](Cc1c[nH]cn1)NC(=O)[C@H](CO)NC(=O)[C@H](CC(C)C)NC(=O)[C@H](CCCNC(=N)N)NC(=O)[C@@H]1CCCN1C(=O)[C@H](CCCNC(=N)N)NC(=O)[C@@H]1CCC(=O)N1)C(=O)NC(C)(C)C(=O)N[C@@H](Cc1ccc(Br)cc1)C(=O)O [Peptide 4] ([pGlu]RPRLSHKGP[Nle][Aib][Phe(4-Br)]-OH; C-terminus assumed) |  | 6 | 65 ± 14% | potent physiological effects | 77 ± 19% | 
CCCC[C@H](NC(=O)[C@@H]1CCCN1C(=O)CNC(=O)[C@H](CCCCN)NC(=O)[C@H](Cc1c[nH]cn1)NC(=O)[C@H](CO)NC(=O)[C@H](CC(C)C)NC(=O)N(CCCNC(=N)N)NC(=O)[C@@H]1CCCN1C(=O)[C@H](CCCNC(=N)N)NC(=O)[C@@H]1CCC(=O)N1)C(=O)NC(C)(C)C(=O)N[C@@H](Cc1ccc(Br)cc1)C(=O)O [Peptide 16, pGlu-Arg-Pro-azaArg-Leu-Ser-His-Lys-Gly-Pro-Nle-Aib-paraBrPhe] ([pGlu]RP[X1]LSHKGP[Nle][Aib][Phe(4-Br)]-OH; C-terminus assumed) | 1 ± 0.1 nM | 3 | 57 ± 1% | without inducing any vasoactive effects | 83 ± 3% | significant and pronounced effect of increasing the murine HR; also recorded: had an impact on the heart rate
CCCC[C@H](NC(=O)[C@@H]1CCCN1C(=O)CNC(=O)[C@H](CCCCN)NC(=O)[C@H](Cc1c[nH]cn1)NC(=O)[C@H](CO)NC(=O)[C@H](CC(C)C)NC(=O)[C@](C)(CCCNC(=N)N)NC(=O)[C@@H]1CCCN1C(=O)[C@H](CCCNC(=N)N)NC(=O)[C@H](CCC(N)=O)NC(=O)[C@H](CCCNC(=N)N)NC(=O)[C@H](CCCNC(=N)N)NC(=O)[C@H](Cc1ccccc1)NC(=O)[C@@H](N)CCCCN)C(=O)NC(C)(C)C(=O)N[C@@H](Cc1ccc(Br)cc1)C(=O)O [Peptide 13, Lys-Phe-Arg-Arg-Gln-Arg-Pro-αMeArg-Leu-Ser-His-Lys-Gly-Pro-Nle-Aib-paraBrPhe] (H-KFRRQRP[αMeR]LSHKGP[Nle][Aib][Phe(4-Br)]-OH; N-terminus and C-terminus assumed) | 0.13 ± 0.032 nM |  | 55 ± 4% | without inducing any vasoactive effects | 61 ± 10% | had an impact on the heart rate
CCCC[C@H](NC(=O)[C@@H]1CCCN1C(=O)CNC(=O)[C@H](CCCCN)NC(=O)[C@H](Cc1c[nH]cn1)NC(=O)[C@H](CO)NC(=O)[C@](C)(CC(C)C)NC(=O)[C@H](CCCNC(=N)N)NC(=O)[C@@H]1CCCN1C(=O)[C@H](CCCNC(=N)N)NC(=O)[C@H](CCC(N)=O)NC(=O)[C@H](CCCNC(=N)N)NC(=O)[C@H](CCCNC(=N)N)NC(=O)[C@H](Cc1ccccc1)NC(=O)[C@@H](N)CCCCN)C(=O)NC(C)(C)C(=O)N[C@@H](Cc1ccc(Br)cc1)C(=O)O [Peptide 15] (H-KFRRQRPR[αMeL]SHKGP[Nle][Aib][Phe(4-Br)]-OH; N-terminus and C-terminus assumed) |  |  | 48 ± 7% | without inducing any vasoactive effects | 77 ± 4% | had an impact on the heart rate
CCCCCCCCCCCCCCCC(=O)N[C@@H](CCCCN)C(=O)N[C@@H](Cc1ccccc1)C(=O)N[C@@H](CCCNC(=N)N)C(=O)N[C@@H](CCCNC(=N)N)C(=O)N[C@@H](CCC(N)=O)C(=O)N[C@@H](CCCNC(=N)N)C(=O)N1CCC[C@H]1C(=O)N[C@@H](CCCNC(=N)N)C(=O)N[C@@H](CC(C)C)C(=O)N[C@@H](CO)C(=O)N[C@@H](Cc1c[nH]cn1)C(=O)N[C@@H](CCCCN)C(=O)NCC(=O)N1CCC[C@H]1C(=O)N[C@@H](CCCC)C(=O)NC(C)(C)C(=O)N[C@@H](Cc1ccc(Br)cc1)C(=O)O [Peptide 56] (Palmitoyl-KFRRQRPRLSHKGP[Nle][Aib][Phe(4-Br)]-OH; C-terminus assumed) |  |  |  | more potent than apelin-17 (2) and apelin-17A2 (5) |  | 
CCCC[C@H](NC(=O)[C@@H]1CCCN1C(=O)CNC(=O)[C@H](CCCCN)NC(=O)[C@H](Cc1c[nH]cn1)NC(=O)[C@H](CO)NC(=O)[C@H](CC(C)C)N(C)C(=O)[C@H](CCCNC(=N)N)NC(=O)[C@@H]1CCCN1C(=O)[C@H](CCCNC(=N)N)NC(=O)[C@H](CCC(N)=O)NC(=O)[C@@H](N)CCCNC(=N)N)C(=O)NC(C)(C)C(=O)N[C@@H](Cc1ccc(Br)cc1)C(=O)O [Peptide 55, Arg-Gln-Arg-Pro-Arg-NMeLeu-Ser-His-Lys-Gly-Pro-Nle-Aib-paraBrPhe] (H-RQRPR[NMeL]SHKGP[Nle][Aib][Phe(4-Br)]-OH; C-terminus assumed) |  |  |  | inactive or nearly so |  | 
